Test results reported in ChEMBL document CHEMBL3132783, “Design, synthesis and biological evaluation of novel ligustrazinylated derivatives as potent cardiovascular agents” (Medchemcomm, 2013).
pEC50, pIC50: −log10 of the molar value.

Tests used:
[1] = Antiplatelet activity in rabbit platelet rich plasma assessed as inhibition of ADP-induced aggregation at 0.05 mM treated for 5 mins prior to ADP-challenge relative to control; format: functional; settings: Oryctolagus cuniculus
[2] = Cytoprotective activity in H2O2-induced human ECV304 cells assessed as proliferation rate at 50 uM incubated for 24 hrs prior to H2O2-challenge measured after 12 hrs by MTT assay relative to control; format: functional; settings: ECV-304, read-out: Activity
[3] = Antiplatelet activity in rabbit platelet rich plasma assessed as inhibition of ADP-induced aggregation at 0.4 mM treated for 5 mins prior to ADP-challenge relative to control; format: functional; settings: Oryctolagus cuniculus
[4] = Antiplatelet activity in rabbit platelet rich plasma assessed as inhibition of ADP-induced aggregation treated for 5 mins prior to ADP-challenge; format: functional; settings: Oryctolagus cuniculus
[5] = Cytoprotective activity in H2O2-induced human ECV304 cells assessed as proliferation rate incubated for 24 hrs prior to H2O2-challenge measured after 12 hrs by MTT assay; format: functional, cell-based; settings: ECV-304
[6] = Antiplatelet activity in rabbit platelet rich plasma assessed as inhibition of ADP-induced aggregation at 0.2 mM treated for 5 mins prior to ADP-challenge relative to control; format: functional; settings: Oryctolagus cuniculus
[7] = Cytoprotective activity in H2O2-induced human ECV304 cells assessed as proliferation rate at 100 uM incubated for 24 hrs prior to H2O2-challenge measured after 12 hrs by MTT assay relative to control; format: functional; settings: ECV-304, read-out: Activity
[8] = Cytoprotective activity in H2O2-induced human ECV304 cells assessed as proliferation rate at 12.5 uM incubated for 24 hrs prior to H2O2-challenge measured after 12 hrs by MTT assay relative to control; format: functional; settings: ECV-304, read-out: Activity
[9] = Antiplatelet activity in rabbit platelet rich plasma assessed as inhibition of ADP-induced aggregation at 0.1 mM treated for 5 mins prior to ADP-challenge relative to control; format: functional; settings: Oryctolagus cuniculus
[10] = Cytoprotective activity in H2O2-induced human ECV304 cells assessed as proliferation rate at 25 uM incubated for 24 hrs prior to H2O2-challenge measured after 12 hrs by MTT assay relative to control; format: functional; settings: ECV-304, read-out: Activity

| SMILES | inhibition at 50 µM [1] [%] | growth at 50 µM [2] [%] | inhibition at 400 µM [3] [%] | pIC50 [4] | pEC50 [5] | inhibition at 200 µM [6] [%] | growth at 100 µM [7] [%] | growth at 12.5 µM [8] [%] | inhibition at 100 µM [9] [%] | growth at 25 µM [10] [%] |
| --- | --- | --- | --- | --- | --- | --- | --- | --- | --- | --- |
| Cc1nc(C)c(COc2ccc3ccc(=O)oc3c2)nc1C | 21.7 | 44.2 | 39.2 | 2.89 | 3.85 | 35.1 | 46.6 | 38.8 | 25 | 42 |
| Cc1nc(C)c(CSc2nnnn2-c2ccccc2)nc1C | -4.07 | -78.4 | 9.33 | < 2.70 |  | 4.93 | -136 | -135 | 12.3 | -119 |
| Cc1nc(C)c(CSc2nnnn2-c2cccc3ccccc23)nc1C | 2.25 |  | 13.1 | < 2.70 |  | 5.75 |  |  | 10.2 |  |
| CSc1snc(OCc2nc(C)c(C)nc2C)c1C#N | 3.36 | 160 | 32.2 | 2.82 | < 1.00 | 22.6 |  |  | 13.5 | 25.2 |
| Cc1nc(C)c(Cn2nnc3ccccc32)nc1C | -2.21 | -96.5 | 28.3 | 2.74 | < 1.00 | 16.9 | -178 | 23.2 | 7.23 | 25.1 |
| Cc1nc(C)c(Cn2cnc3ccccc32)nc1C | -0.97 | 0.25 | 30.9 | 2.72 |  | 13.1 |  | -91.8 | 11 | -13.8 |
| Cc1nc(C)c(CNC(=O)CN2CCCC2=O)nc1C | 3.23 | 23.4 | 36 | 2.92 | 2.89 | 19.6 | 26.4 | -35.8 | 10.4 | 14.5 |
| C=CCSSCc1nc(C)c(C)nc1C | 16.7 | 15 | 38.1 | 2.89 | 2.96 | 30.4 | 51.1 | 13 | 18 | -17.6 |
| C=CCc1ccc(OCc2nc(C)c(C)nc2C)c(OC)c1 | -4.29 | 30.1 | 6.42 | < 2.70 | 3.70 | 12.3 | 36 | 22 | 1.45 | 28.2 |
| Cc1nc(C)c(COc2ccc3c(C)cc(=O)oc3c2)nc1C | 2.27 | 25.8 | 40.1 | 3.04 | 3.85 | 17.2 | 36.6 | 12 | 8.73 | 21 |
| Cc1nc(C)c(CSc2nnc(-c3cccs3)n2N)nc1C | 0.15 | 38.2 | 38.5 | 3.09 | 3.48 | 23.2 | 40.2 | 36.2 | 13.4 | 37.4 |
| Cc1nc(C)c(CSc2nc(C)c(CC(=O)O)s2)nc1C | 27.5 | 47 | 46.9 | 3.21 | 3.82 | 38.3 | 48.1 | 44.9 | 35 | 46.2 |
| Cc1nc(C)c(CSc2nnnn2C)nc1C | 1.53 | -77 | 9.95 | < 2.70 |  | 13.5 | -117 |  | 4.04 | -180 |
| Cc1nc(C)c(CSc2nc3ccccc3s2)nc1C | 5.12 | 9.51 | 33.4 | 2.80 | 3.44 | 20.9 | 17.2 | 4.33 | 13.4 | 7.95 |
| Cc1nc(C)c(CSc2nnc(-c3ccco3)n2N)nc1C | -2.62 | 23.5 | 35.6 | 3.03 | 3.38 | 20 | 25.8 | 19 | 10.4 | 21.3 |
| Cc1nc(C)c(C)nc1C [LIGUSTRAZINE] |  | 22.1 |  |  | 3.22 |  | 42.8 | 10.4 |  | 12.7 |
| O=C(O)CCCCC1CCSS1 (stereo not drawn) [LIPOIC ACID, ALPHA] |  | 48.7 |  |  | 4.17 |  | 58.1 | 30.5 |  | -12.3 |
| O=C(O)/C=C/c1ccc(Cn2ccnc2)cc1 [OZAGREL] | 23.3 |  | 55.3 | 3.44 |  | 45.4 |  |  | 27.3 |  |
